# Assay results from patent US7652172B2, “Expeditious synthesis of DPD” (The Trustees of Princeton University, priority 2004, dated 2010).
# Experiments:
# [1] = tested on: V. harveyi strain MM32 (luxN− luxS−); assay: Effects of low pH on DPD bioactivity (V. harveyi bioassay after acid treatment); assay type: cell-based
# Description: (§1) V. harveyi strain MM32 (luxN^− luxS^−) was grown overnight and subsequently diluted 5.000-fold in AB growth medium. This bioassay was performed as developed by the method of Schauder et. al. (2001). To 90 μL of diluted cells ,10 μL of various compounds were added, and the resulting cultures were further incubated in a 96-well microtiter dish at 30° C. for approximately 6 h. The concentration of crude DPD was calculated by measuring the amount of homocysteine released in an Ellman's test. Light emission was measured using a Wallac model 1450 microbeta Plus scintillation counter.
# B. Effects of low pH on enzmmatically-produced DPD bioactivity. Enzymatically produced DPD (0.53 mM stock concentration) was mixed with sulfuric or hydrochloric acid at a ratio of 1 μL H2SO4 or 5 μL HCl to 250 μL DPD, resulting in solutions with a pH of 1.5 (with H2SO4) or 2 (with HCl). At times indicated, 1 M Tris pH 8.5 was added to restore the pH to neutral and bioactivity was determined. […] Similar results were obtained after exposure to H2SO4 (not shown).
# C. Effects of low pH on synthetic DPD bioactivity. Synthetically-produced DPD (100 mM stock concentration) was mixed with H2SO4 at a ratio of 1 μL H2SO4 to 250 μL DPD, resulting in solutions with a pH of 1.3. After 16 h, 1 M Tris pH 8.5 was added at a ratio of 5 μL buffer to 20 uL DPD solution to restore the pH to 7.5.
# [2] = tested on: cell growth; assay: Cell growth inhibition by deprotection by-product; assay type: cell-based; details: concentrations under 1 M
# [3] = tested on: V. harveyi strain MM32 (luxN− luxS−); assay: V. harveyi autoinducer bioassay (light emission); assay type: cell-based; details: for activity compared with enzymatically prepared DPD in the V. harveyi bioassay: equal concentration, 0.5 M potassium phosphate buffer, pH 7.3
# Description: as §1
# A. Comparative bioactivity of enzymatically-produced DPD, synthetic DPD and synthetic ent-DPD. Each of these three compounds and a blank were assessed in the above bioassay at equal concentrations. The bio assays were conducted with a dilution of 0.53 mM enzymatically-produced DPD, a dilution of 5.0 mM synthetic DPD or a dilution of 5.0 mM ent-DPD.
# [4] = Stability of DPD in aqueous solution monitored by 1H NMR; assay type: physicochemical
# Description: Synthetically-produced DPD was stable under acidic conditions; a 30 mM sample of the molecule was monitored for decomposition via ^1H NMR for 5 h at 20° C. and pH 1.5. […] The purity of the synthetic DPD was further established by reaction with o-phenylenediamine to produce (S)-1-(3-methylquioxalin-2-yl)-ethane-1,2-diol in >98% purity.
# To a suspension of 11 (9.6 mg, […]) in D2O) (1.5 mL) was added conc. D2SO4 (1.5 μL, final pD1.5). The reaction was allowed to continue for 5 h and was monitored by ^1H NMR. A ^1H-^1H DQCOSY spectrum was recorded at the 5-h time point to help establish the identity of each ^1H signal. […] The extra signals in the region form 1.35-1.45 ppm and 3.4-4.6 ppm are most likely due to a small amount of 1 that is not hydrated at C3. This hypothesis is supported by the complete disappearance of these peaks upon addition of 1,2-phenylenediamine (see Example 13)
# [5] = 11B NMR DPD-borate binding study; assay type: physicochemical; details: 100 μM DPD in 400 μM B(OH)3, pH 7.5
# Description: To explore the binding of DPD with borate under conditions that more closely resemble those in the natural habitat of V. harveyi and to correlate this study with previous work using DPD produced in vivo and released from the V. harveyi receptor protein, LuxP, the ^11B NMR spectrum of a 100 μM DPD solution in 400 μM B(OH)3 (Dickson et al. 1990) at pH 7.5 was recorded. […] Based on the ratio of integrals for the B(OH)3 peak and the DPD:borate peak, the concentration of DPD:borate complex was calculated to be ca 10 μM. consistent with ca 10% DPD bound at this dilution. We were unable to observe conclusively the presence of complexes with a 2:1 DPD:borate stoichiometry due to sensitivity limitations of the ^11B NMR experiment, although a peak with a S/N of 2 was recorded at δ 9.8 ppm.
# To explore further the ability of DPD to complexborate at more physiologically relevant concentrations, a mixture of 10 μL of 40 mM B(OH)3, […] of 10 mM DPD, 100 μL of 1 M potassium phosphate buffer (pH 7), 200 μL of sat. NaHCO3 and 680 μL of D2O was produced to generate a 100 μM DPD solution in 400 μM B(OH)3, at pH 7.5. This solution was then analyzed by ^11B NMR to determine binding, as discussed in the Detailed Description of the Invention.
smiles,measurement,setting,value
"CC(=O)C(=O)C(O)CO (stereo not shown) [enzymatically-produced DPD, 4,5-dihydroxypentane-2,3-dione, reference compound]",effect of acid treatment on autoinducer activity,"[1]; enzymatically produced, 0.53 mM stock, pH 1.5 (H2SO4) or 2 (HCl), up to 16 h",did not affect the autoinducer activity
O=C1CCCCC1 [cyclohexanone],inhibition of cell growth,[2],does not inhibit cell growth
CC(=O)C(=O)[C@H](O)CO [Ent-DPD],activity relative to DPD (1) in the V. harveyi bioassay,[3],1%
"CC(=O)C(=O)C(O)CO (stereo not shown) [DPD, 4,5-dihydroxypentane-2,3-dione]",decomposition under acidic conditions by 1H NMR,"[4]; 30 mM, 5 h at 20° C., pH 1.5",no decomposition products were observed
same,stability at basic pH,"[4]; pH>8, unless bound to borate",less stable
same,activity in the V. harveyi autoinducer-bioassay,"[3]; deprotection solution with excess borate at pH 7.8, without further purification",active
same,activity compared with enzymatically prepared DPD in the V. harveyi bioassay,[3],equal
same,activity compared with enzymatically prepared DPD in the V. harveyi bioassay,[3]; listed as synthetic DPD,equal in activity
same,change in bioactivity after storage under acidic conditions,"[1]; pH 1.5-2, dilute aqueous solution, 16 h at 20° C., DPD at least 30 mM and up to 100 mM",no significant decrease in bioactivity
same,effect of acid treatment on autoinducer activity,"[1]; synthetic, 100 mM, pH 1.3, 16 h, 20° C., listed as Synthetically-produced DPD",no loss in activity
same,effect of acid treatment on autoinducer activity,"[1]; synthetic, 100 mM, pH 1.3, 16 h, 20° C., listed as synthetic DPD",did not change the auto inducer activity
same,DPD bound to borate,[5],~10%
same,concentration of DPD:borate complex,[5]; from ratio of 11B NMR integrals,~10 µM
